In patent US20090162413A1 (priority 1998, published 2009):

Experiments:
[1] = cynomolgus monkey, in vivo, iv, 2.5 mg/kg
[2] = tested on: human coronary artery smooth muscle cells (hCaSMC); experiment: 3H-thymidine uptake proliferation assay, hCaSMC; format: cell-based
Method: Experiments were performed to investigate interactions between zotarolimus (ABT-578) and paclitaxel when administered in combination. The effects of paclitaxel and zotarolimus on the anti-proliferative activity of human coronary artery smooth muscle ([…]) and endothelial […] determined using an in vitro proliferation assay. The proliferation and migration of vascular smooth muscle cells into the vascular neointima is a characteristic pathologic response seen in restenotic lesions (Lafont and Libby, 1998). As a result, in vitro assays which specifically measure the anti-proliferative activity of candidate anti-restenotic compounds on human coronary artery smooth muscle and endothelial cells predict potential anti-restenotic activity in vivo. Compounds or combinations of compounds which attenuate growth factor-mediated human coronary artery smooth muscle cell ([…]) proliferation, as measured by the tritium incorporation assay in vitro, are candidate anti-restenotic agents. The tritium incorporation assay is an accurate and sensitive method to determine cell number and proliferation. […] The attenuation of zotarolimus's anti-proliferative activity by tacrolimus is a clear example of this effect (FIG. 10A). To determine the potential anti-restenotic activity of combinations of zotarolimus and paclitaxel, the proliferation of […] was measured in the presence of each compound and in combination. To determine if paclitaxel attenuated or augmented the activity of zotarolimus the effect of paclitaxel and zotarolimus alone and in combination on growth-factor induced proliferation was determined. Data were analyzed for additivity using an isobologram approach and a combination index analysis. An isobologram is a Cartesian plot of pairs of doses that, in combination, yield a specified level of effect. It is a convenient way of graphically displaying results of drug-combination and similar studies, because paired values of experimental points that fall below or above the line connecting the axial points indicate synergistic and non-synergistic interactions, respectively. Cell proliferation was monitored by following incorporation of ^3H-thymidine into newly synthesized DNA of cells stimulated by serum and growth factors. Exponentially growing […] were seeded into 96-well flat bottom tissue culture plates at 5,000 cells/well (10,000 cells/well for […]). The cells were allowed to attach overnight. The growth medium was removed the following day, and cells were washed twice with un-supplemented (basal) medium to remove traces of serum and growth factors. […] PerkinElmer; Wellesley; MA) was added to each filter well and the plates were counted using a TopCount microplate scintillation counter (PerkinElmer). […]

[3] = tested on: human coronary artery endothelial cells (hCaEC); experiment: 3H-thymidine uptake proliferation assay, hCaEC; format: cell-based
Method: Experiments were performed to investigate interactions between zotarolimus (ABT-578) and paclitaxel when administered in combination. The effects of paclitaxel and zotarolimus on the anti-proliferative activity of human coronary artery smooth muscle ([…]) and endothelial […] determined using an in vitro proliferation assay. The proliferation and migration of vascular smooth muscle cells into the vascular neointima is a characteristic pathologic response seen in restenotic lesions (Lafont and Libby, 1998). As a result, in vitro assays which specifically measure the anti-proliferative activity of candidate anti-restenotic compounds on human coronary artery smooth muscle and endothelial cells predict potential anti-restenotic activity in vivo. To determine if paclitaxel attenuated or augmented the activity of zotarolimus the effect of paclitaxel and zotarolimus alone and in combination on growth-factor induced proliferation was determined. Data were analyzed for additivity using an isobologram approach and a combination index analysis. An isobologram is a Cartesian plot of pairs of doses that, in combination, yield a specified level of effect. It is a convenient way of graphically displaying results of drug-combination and similar studies, because paired values of experimental points that fall below or above the line connecting the axial points indicate synergistic and non-synergistic interactions, respectively. Cell proliferation was monitored by following incorporation of ^3H-thymidine into newly synthesized DNA of cells stimulated by serum and growth factors. Exponentially growing […] were seeded into 96-well flat bottom tissue culture plates at 5,000 cells/well (10,000 cells/well for […]). The cells were allowed to attach overnight. […] PerkinElmer; Wellesley; MA) was added to each filter well and the plates were counted using a TopCount microplate scintillation counter (PerkinElmer). […] The concentration eliciting a specific anti-proliferative effect was determined using a four-parameter equation (equation 1): […]

[4] = accelerated in vitro elution from PC1036 coated drug-loaded stents (Example 10); format: physicochemical; conditions: stents with 10 μg/mm zotarolimus alone or with paclitaxel
Human MLR = experiment: human mixed lymphocyte reaction (MLR) assay; format: cell-based; conditions: read-out: Human MLR IC50 ± S.E.M.

40-epi-N-[2′-pyridone]-rapamycin [Example 2-pyridone]
AUC [1]: 2.55 ng·h/mL

COC1CC2CCC(C)C(O)(O2)C(=O)C(=O)N2CCCCC2C(=O)OC(C(C)CC2CCC(n3ccc(=O)cc3)C(OC)C2)CC(=O)C(C)C=C(C)C(O)C(OC)C(=O)C(C)CC(C)C=CC=CC=C1C (stereo not drawn) [Example 4-pyridone, 40-epi-N-[4′-pyridone]-rapamycin]
AUC [1]: 5.59 ng·h/mL

CC(=O)O[C@H]1C(=O)[C@@]2(C)[C@H]([C@H](OC(=O)c3ccccc3)[C@]3(O)C[C@H](OC(=O)[C@H](O)[C@@H](NC(=O)c4ccccc4)c4ccccc4)C(C)=C1C3(C)C)[C@]1(OC(C)=O)CO[C@@H]1C[C@@H]2O [PAC, paclitaxel]
IC50 ([2]; Homo sapiens, read-out: hCaSMC IC50 Mean ± SEM): 3 ± 0.5 nM | effect on the inhibition of proliferation by zotarolimus ([2]; hCaSMC, FIG. 10B): not blocked | IC50 ([3]; Homo sapiens, Endothelial cell, read-out: hCaEC IC50 Mean ± SEM): 4.6 ± 0.3 nM | effect on the inhibition of proliferation by zotarolimus ([3]; hCaEC, FIG. 10C): not blocked | effect on the elution profile of zotarolimus [4]: little effect

CO[C@H]1C[C@@H]2CC[C@@H](C)[C@@](O)(O2)C(=O)C(=O)N2CCCC[C@H]2C(=O)O[C@H]([C@H](C)C[C@@H]2CC[C@@H](O)[C@H](OC)C2)CC(=O)[C@H](C)/C=C(\C)[C@@H](O)[C@@H](OC)C(=O)[C@H](C)C[C@H](C)/C=C/C=C/C=C/1C [Rapamycin]
IC50 (Human MLR): 0.91 ± 0.36 nM

C=CC[C@@H]1/C=C(\C)C[C@H](C)C[C@H](OC)[C@H]2O[C@@](O)(C(=O)C(=O)N3CCCC[C@H]3C(=O)O[C@H](/C(C)=C/[C@@H]3CC[C@@H](O)[C@H](OC)C3)[C@H](C)[C@@H](O)CC1=O)[C@H](C)C[C@@H]2OC [tacrolimus]
effect on the anti-proliferative activity of zotarolimus ([2]; smooth muscle cells in vitro, FIG. 10A): blocks the anti-proliferative activity of zotarolimus
